Data taken from US20140275090A1, “BILE ACID RECYCLING INHIBITORS FOR TREATMENT OF PRIMARY SCLEROSING CHOLANGITIS AND INFLAMMATORY BOWEL DISEASE” (Lumena Pharmaceuticals, Inc., priority 2013, published 2014).

Legend:
[1] = system: Hepatic HMG-CoA Reductase; experiment: Hepatic HMG-CoA reductase activity assay, hamster liver microsomes; assay type: in vivo, golden Syrian hamster; settings: 28 days
Source text: (§1) Male golden Syrian hamsters (126-147 gm) were obtained from Charles Rivers Laboratories and were single housed in a constant temperature environment with alternating 12-hour light and dark cycles. Hamsters were fed Teklad 7001 rodent meal chow at libitum for two weeks before the experimental studies began and switched to Teklad 7001 rodent meal chow supplemented with 0.24% cholesterol on day one of the 28-day experiment. Water was continuously available to the animals. Hamsters were assigned to groups in a manner that normalized each group by pretreatment body weights. SD-5613 was dissolved in an aqueous solution of 0.2% (w/v) Tween 80 and administered Q.D. by intragastric gavage between 9 a.m. and 10 a.m. each morning using a syringe fitted with a flexible feeding tube. Blood samples were collected after 14- and 28-day treatment periods by orbital sinus and cardiac puncture, respectively. Hamsters were anesthetized but not fasted prior to blood collections. Fecal samples were collected during a 48-hour period at the end of days 14 and 28 (i.e. days 13-14 and 27-28). Hamsters were sacrificed using carbon dioxide asphyxiation to obtain the following tissue samples: liver, kidneys, colon and cecum.
(§2) Homogenates of three gram liver tissue samples were prepared in 25 ml homogenization buffer [0.1 M potassium phosphate buffer, pH 7.2, containing 0.1 M sucrose, 50 mM KCl, 50 mM NaF, 5 mM ethylene glycol-bis(β-aminoethyl ether)-N,N,N′,N′-tetraacetic acid (EGTA), 1 mM EDTA, 3 mM dithiothreitol (DTIT), and 1 mM phenylmethylsulfonyl fluoride (PMSF)]. A microsomal fraction was prepared by centrifugation at 10,000×g for ten minutes. The supernatant was subjected to centrifugation at 105,000×g for two hours. The microsomal fraction was resuspended in a 0.1 M Na tetrapyrophosphate buffer (pH 10), with 50 mM NaF, and 1 mM EDTA, and subjected to centrifugation for one hour at 105,000×g. The microsomal fraction was resuspended in the homogenization buffer, and assayed for protein content by Coomassie Protein Plus Assay reagent.
Microsomes (200 μg) were preincubated for 15 minutes at 37° C. in a total volume of 225 μl buffer containing 0.1 M potassium phosphate (pH 7.4), 10 mM imidazole, 5 mM DTT, 10 mM EDTA, 3 mM NADP, 12 mM glucose-6-phosphate and 1 unit glucose-6-phosphate dehydrogenase (catalog number G4134, Sigma, St. Louis). The HMG-CoA reductase assay was initiated by the addition of 9 nmoles (0.5 μCi). DL-[-3^14C]-HMG-CoA (final assay volume was DL-3-[^14C]-250 μl). The mixture was incubated for 60 minutes at 37° C. after which the assay was stopped with 25 μl of 6 N HCl. [^3H]Mevalonic acid (0.1 μCi), used as an internal standard to correct for incomplete recovery, was added to the reaction mixture along with 3 mg of unlabeled mevalonic acid lactone. The mixture was then incubated for an additional 30 minutes at 37° C. The [^14C]mevalonate that was formed and converted into mevalonic acid lactone during both incubations was isolated by thin layer chromatography. Each lane was scraped into 3 ml of InstaGel XF (Packard, Meriden, Conn.) and read on a Beckman Scintillator Counter. Reagents unless noted otherwise were obtained from Sigma, St. Louis, Mo. Isotopes were obtained from NEN Life Science Products, Boston, Mass.

[2] = system: Hepatic Cholesterol 7α-hydroxylase; experiment: Cholesterol 7-α hydroxylase activity assay, hamster liver microsomes; assay type: in vivo, golden Syrian hamster; settings: 28 days
Source text: as §1, §2
Liver microsomes (1 mg) or 7-α-hydroxycholesterol standard solutions were preincubated for five minutes at 37° C. in a rocking water bath with 500 μl 5× buffer, 1.7 ml water, and 50 μl 0.1% (w/v) cholesterol as substrate in excess. The 5× buffer consists of 0.42 M Na2HPO4, 0.25 mM NaF, 0.08 M KH2PO4, 5 mM EDTA and 10 mM DTT. The reaction tubes were incubated at 37° C. in a rocking water bath throughout the remainder of the assay protocol, with cessation of rocking only for the period of time needed to add solutions. After the preincubation period, 250 μl of 10 mM NADPH was added and incubated for 5 minutes to allow enzymatic conversion of the cholesterol substrate to 7-α-hydroxycholesterol by endogenous 7-α-hydroxylase. The reaction was stopped by addition of 75 μl of 20% sodium cholate. After four minutes, 25 μl of 100 μM 20-α-hydroxycholesterol was added to each tube as an internal recovery standard. The tubes were allowed to rock briefly in the water bath to mix, then 40 μl of 25 U/ml cholesterol oxidase was added and the tubes were incubated for ten minutes to convert 7-α-hydroxycholesterol and 20-α-hydroxycholesterol to their ketone forms, 7-α-hydroxycholesten-3-one and 20-α-hydroxycholesten-3-one. After the enzymatic reactions were completed, the ketone products were isolated by four sequential extractions in 20, 10, 10 and 10 ml petroleum ether, respectively. The collected volumes were evaporated to dryness under a flow of nitrogen gas between each extraction step using a heat block set at 50° C. The final dried samples were resuspended in 125 μl mobile phase solution consisting of 70:30 acetonitrile/methanol for analysis by reversed phase HPLC. Chromatography was performed on a 4.6×250 mm Beckman Ultrosphere ODS reverse phase column in mobile phase solution. […]

CCCCC1(CCCC)CS(=O)(=O)c2ccc(N(C)C)cc2[C@@H](c2ccc(OCc3ccc(C[N+]45CCN(CC4)CC5)cc3)cc2)[C@H]1O [LUM001]
Hepatic HMG-CoA Reductase ([1]; 5 mg/kg/day): 4.6 ± 0.4 pmol/mg-protein/min | Hepatic HMG-CoA Reductase, % change from vehicle group ([1]; 5 mg/kg/day): (+31) % | Hepatic HMG-CoA Reductase ([1]; 15 mg/kg/day): 16 ± 4 pmol/mg-protein/min | Hepatic HMG-CoA Reductase, % change from vehicle group ([1]; 15 mg/kg/day): (+346) % | Hepatic HMG-CoA Reductase ([1]; 50 mg/kg/day): 17 ± 4 pmol/mg-protein/min | Hepatic HMG-CoA Reductase, % change from vehicle group ([1]; 50 mg/kg/day): (+389) % | Hepatic Cholesterol 7α-hydroxylase ([2]; 5 mg/kg/day): 50.9 ± 4.8 pmol/mg-port/min | Hepatic Cholesterol 7α-hydroxylase, % change from vehicle group ([2]; 5 mg/kg/day): (+52) % | Hepatic Cholesterol 7α-hydroxylase ([2]; 15 mg/kg/day): 56.5 ± 4.5 pmol/mg-port/min | Hepatic Cholesterol 7α-hydroxylase, % change from vehicle group ([2]; 15 mg/kg/day): (+69) % | Hepatic Cholesterol 7α-hydroxylase ([2]; 50 mg/kg/day): 63.8 ± 5.6 pmol/mg-port/min | Hepatic Cholesterol 7α-hydroxylase, % change from vehicle group ([2]; 50 mg/kg/day): (+90) %
